The record followed here is patent US8394797B2, “Substituted pyrazole sigma receptor antagonists” (Laboratorios Del Dr. Esteve, S.A., priority 2004, dated 2013).

Data set [1] relates to capsaicin-induced mechanical allodynia in mice. The data set can be described thus: Effect on capsaicin in development of mechanical allodynia (von Frey filaments). Format: in vivo. As to conditions: mice, capsaicin, von Frey filaments. The protocol: Effect on Capsaicin in Development of Mechanical Allodynia This model uses the von-Frey Filaments and is a model to test the effects or symptoms of neuropathic pain, allodynia etc. […]. After habituation mice were according to FIG. 1 first treated with the test-compound (or solvent in controls). Then […] (1% DMSO) is injected into their paw resulting in developing pain in the effected paw. The effected paw is then treated with a mechanical stimulus and the latency time before the paw is withdrawn is measured.

The target in data set [2] is T1, σ2-receptor (Mus musculus, UniProt Q8VD00).
T1 construct: brains from sigma receptor type I (sigma-1) knockout mice were homogenized; from tissue; host or cells: brain membranes of sigma-1 knockout mice
T1 sequence (Q8VD00 1-176): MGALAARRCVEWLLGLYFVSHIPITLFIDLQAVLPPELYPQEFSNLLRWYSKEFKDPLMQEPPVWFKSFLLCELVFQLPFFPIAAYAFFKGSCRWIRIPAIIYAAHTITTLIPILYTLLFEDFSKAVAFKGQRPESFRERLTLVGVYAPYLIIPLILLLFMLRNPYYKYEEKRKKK
Description: Sigma-2 receptor binding, [3H]-DTG, brains from sigma-1 knockout mice. As to conditions: for inhibition at 1 µM: 2 h, tested compound at 10^-6 M, [3H]-DTG 3 nM, read-out: binding sigma-2 (*) % of radioactively labeled compound replaced by the tested compound; for Ki: [3H]-DTG, sigma-1 knockout mouse brain. How it is done:
In brief, brains from sigma receptor type I (sigma-1) knockout mice were homogenized in a volume of 10 mL/g tissue net weight of ice-cold 10 mM Tris-HCl, pH 7.4, containing 320 mM sucrose (Tris-sucrose buffer) with a Potter-Elvehjem homogenizer (10 strokes at 500 r.p.m.) The homogenates were then centrifuged at 1000 g for 10 min at 4° C., and the supernatants were saved. The pellets were resuspended by vortexing in 2 mL/g ice-cold Tris-sucrose buffer and centrifuged again at 1000 g for 10 min. The combined 1000 g supernatants were centrifuged at 31000 g for 15 min at 4° C. The pellets were resuspended by vortexing in 3 mL/g 10 mM Tris-HCl, pH 7.4, and the suspension was kept at 25° C. for 15 min.
The assay tubes contained 10 μL of [^3H]-DTG (final concentration of 3 nM), 400 μL of the tissue suspension (5.3 mL/g in 50 mM Tris-HCl, pH 8.0) to a final assay volume of 0.5 mL. Non-specific binding was defined by addition of a final concentration of 1 μM haloperidol. […] Filters were washed with three times with 5 mL volumes of cold Tris-HCl buffer (10 mM, pH 8.0). Following addition of scintillation cocktail samples were allowed to equilibrate overnight.

In data set [3] the target is T2, σ1-receptor (Cavia porcellus, UniProt Q60492).
T2 construct: guinea pig brains were homogenized; from tissue; host or cells: guinea pig brain membranes
Description: Sigma-1 receptor binding, [3H](+)-pentazocine, brain membranes. Further details: species or system guinea pig. As to conditions: for inhibition at 1 µM: 2.5 h, read-out: binding sigma-1 (*) % of radioactively labeled compound replaced by the tested compound.

[4] abbreviates: tested compound at 10^-6 M, [3H](+)-pentazocine 0.5 nM.
Where [5] appears, read: [3H](+)-pentazocine, guinea pig brain membranes, read-out: binding sigma-1 Ki.

Each structure is given as a SMILES string. Structures can show the parent of a compound that is named as a salt. Where two headings read alike, the source gives them in different places.

T2 sequence (Q60492 whole entry): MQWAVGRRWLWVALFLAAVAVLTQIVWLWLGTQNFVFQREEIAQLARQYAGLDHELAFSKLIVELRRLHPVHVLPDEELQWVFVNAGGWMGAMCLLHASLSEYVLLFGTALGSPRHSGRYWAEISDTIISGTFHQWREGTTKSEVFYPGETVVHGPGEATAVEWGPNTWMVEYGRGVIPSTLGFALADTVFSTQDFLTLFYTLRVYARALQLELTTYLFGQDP

As for `c1ccc(-n2ncc3c2CCCC3CCN2CCOCC2)cc1` (stereo not shown) [Example 2, 4,5,6,7-tetrahydro-4-(2-(morpholin-4-yl)ethyl)-1-phenyl-1H-indazole oxalate], the antiallodynic effect result in data set [1] is reported as “clear antiallodynic effect”.
Broadly, the Ki is a measure of affinity in units of concentration, obtained from inhibition or displacement. For orientation: melting point means the temperature of the solid-liquid transition. `O=C(O)C(=O)O.c1ccc(-n2ncc3c2CCCC3CCN2CCC3(CC2)OCc2ccccc23)cc1` (stereo not shown) [Example 12, 4,5,6,7-tetrahydro-1-phenyl-4-(2-[spiro[isobenzofuran-1(3H), 4′-piperidin]-1′-yl]ethyl)-1H-indazole oxalate] had a melting point of 133 to 135 °C. Also, in data set [2], the inhibition at 1 µM turned out to be 98.8% and the Ki was 37 nM. Besides, in data set [3], the affinity, expressed as Ki, was 0.9 nM and the inhibition at 1 µM worked out at 100%.
`O=C(O)C(=O)O.c1ccc(-n2ncc3c2CCCC3CCN2CCCCC2)cc1` (stereo not shown) [Example 14, 4,5,6,7-tetrahydro-1-phenyl-4-(2-(piperidin-1-yl)ethyl)-1H-indazole oxalate] returned a melting point of 185 to 188 °C. Moreover, the inhibition at 1 µM in data set [2] was 89%. The inhibition at 1 µM in data set [3] (setting [4]) was found to be 99.8%. Further, the Ki in data set [3] (setting [5]) turned out to be 2.3 nM.
`C(/CN1CCCCCC1)=C1/CCCc2c1cnn2-c1ccccc1.O=C(O)C(=O)O` [Example 16, (E)-4-(2-(azepan-1-yl)ethylidene)-4,5,6,7-tetrahydro-1-phenyl-1H-indazole oxalate] yielded a melting point of 171 to 173 °C. The inhibition at 1 µM in data set [2] was found to be 93%. Moreover, the inhibition at 1 µM in data set [3] (setting [4]) was found to be 99.9%. In data set [3] (setting [5]), the Ki was 1.5 nM.
As for `C(/CN1CCC2(CC1)OCc1ccccc12)=C1/CCCc2c1cnn2-c1ccccc1.O=C(O)C(=O)O` [Example 19, (E)-4,5,6,7-tetrahydro-1-phenyl-4-(2-[spiro[isobenzofuran-1(3H), 4′-piperidin]-1′-yl]ethylidene)-1H-indazole oxalate], the melting point lay within 155 to 157 °C. In data set [2], the inhibition at 1 µM was determined as 91% and the Ki worked out at 479 nM. In data set [3], the inhibition constant (Ki) came out at 4.9 nM and the inhibition at 1 µM amounted to 100%.
`C(/CN1CCCC(c2ccccc2)C1)=C1/CCCc2c1cnn2-c1ccccc1` (stereo not shown) [Example 23, (E)-4,5,6,7-tetrahydro-1-phenyl-4-(2-(3-phenylpiperidin-1-yl)ethylidene)-1H-indazole] came in with a melting point of 136 to 138 °C. For the same compound, the inhibition at 1 µM in data set [2] came to 67.4%. Besides, the inhibition at 1 µM in data set [3] (setting [4]) came out at 99.4%. In addition, the Ki in data set [3] (setting [5]) amounted to 23.3 nM.
With `O=C(O)C(=O)O.c1ccc(-n2ncc3c2CCC3CCN2CCOCC2)cc1` (stereo not shown) [Example 31, 1,4,5,6-tetrahydro-4-(2-(morpholin-4-yl)ethyl)-1-phenylcyclopenta[c]pyrazole oxalate], the melting point lay in the range of 159 to 161.8 °C. For the same compound, in data set [2], the inhibition at 1 µM is 88.7% and the Ki came out at 17.5 nM. Further, the inhibition at 1 µM in data set [3] (setting [4]) worked out at 101%. For the same compound, in data set [3] (setting [5]), the inhibitory constant (Ki) is 1.2 nM.
Compound `O=C(O)C(=O)O.c1ccc(-n2ncc3c2CCC3CCN2Cc3ccccc3C2)cc1` (stereo not shown) [Example 35, 2-(2-(1,4,5,6-tetrahydro-1-phenylcyclopenta[c]pyrazol-4-yl)ethyl)isoindoline oxalate] returned a melting point of 195 to 197 °C. Also, the inhibition at 1 µM in data set [2] was 26.4%. Besides, the inhibition at 1 µM in data set [3] (setting [4]) worked out at 101%. Besides, the inhibition constant Ki in data set [3] (setting [5]) came to 9.3 nM.
For `c1ccc(C2CCN(CCC3CCc4c3cnn4-c3ccccc3)CC2)cc1` (stereo not shown) [Example 36, 1,4,5,6-tetrahydro-1-phenyl-4-(2-(4-phenylpiperidin-1-yl)ethyl)cyclopenta[c]pyrazole], the melting point was in the range of 83 to 86 °C. Moreover, the inhibition at 1 µM in data set [2] was found to be 87.9%. For the same compound, the inhibition at 1 µM in data set [3] (setting [4]) came to 103%. In addition, in data set [3] (setting [5]), the inhibitory constant (Ki) amounted to 5.9 nM.
Regarding `O=C(O)C(=O)O.c1ccc(-n2ncc3c2CCC3CCN2CCc3ccccc3C2)cc1` (stereo not shown) [Example 44, 1,2,3,4-tetrahydro-2-(2-(1,4,5,6-tetrahydro-1-phenylcyclopenta[c]pyrazol-4-yl)ethyl)isoquinoline oxalate], the melting point was in the range of 200.5 to 203 °C. Further, in data set [2], the inhibition at 1 µM was 99.4% and the Ki came out at 159 nM. Besides, in data set [3] (setting [4]), the inhibition at 1 µM amounted to 106%. In addition, in data set [3] (setting [5]), the Ki worked out at 2 nM.
`c1ccc(-n2ncc3c2CCC3CCn2ccnc2)cc1` (stereo not shown) [Example 45, 4-(2-(1H-imidazol-1-yl)ethyl)-1,4,5,6-tetrahydro-1-phenylcyclopenta[c]pyrazole] came in with a melting point of 102.9 to 105.7 °C. Further, the inhibition at 1 µM in data set [2] worked out at 22.8%. Besides, the inhibition at 1 µM in data set [3] (setting [4]) turned out to be 76.4%. Also, the inhibitory constant (Ki) in data set [3] (setting [5]) is 143 nM.
The matching figures for `C[C@@H]1CN(CCC2CCc3c2cnn3-c2ccccc2)C[C@H](C)O1.O=C(O)C(=O)O` (stereo partly drawn) [Example 47, cis-1,4,5,6-tetrahydro-4-(2-(2,6-dimethylmorpholin-4-yl)ethyl)-1-phenylcyclopenta-[c]pyrazole oxalate]: 160.2 to 161.5 °C, 95.9%, 104% and 1.8 nM.
The corresponding values for `C[C@@H]1CN(CCC2CCCc3c2cnn3-c2ccccc2)C[C@H](C)O1.O=C(O)C(=O)O` (stereo partly drawn) [Example 49, cis-4,5,6,7-tetrahydro-4-(2-(2,6-dimethylmorpholin-4-yl)ethyl)-1-phenyl-1H-indazole oxalate] are 186.6 to 190 °C, 94.6%, 101% and 7.6 nM.
For `O=C(O)C(=O)O.c1ccc(-n2ncc3c2CCC3CCN2CCC3(CC2)OCc2ccccc23)cc1` (stereo not shown) [Example 51, 1,4,5,6-tetrahydro-1-phenyl-4-(2-[spiro[isobenzofuran-1(3H), 4′-piperidin]-1′-yl]ethyl)cyclopenta[c]pyrazole oxalate], the melting point is 170.5 to 173.6 °C. Besides, the inhibition at 1 µM in data set [2] is 113%. Also, in data set [3], affinity was put at a Ki of 31.3 nM and the inhibition at 1 µM is 107%.
In the case of `O=C(O)C(=O)O.c1ccc(-n2ncc3c2CCCC3CCN2Cc3ccccc3C2)cc1` (stereo not shown) [Example 56, 4,5,6,7-tetrahydro-4-(2-(isoindolin-2-yl)ethyl)-1-phenyl-1H-indazole oxalate], the melting point lay in the range of 195.7 to 200 °C. Besides, in data set [2], the inhibition at 1 µM was 109% and the inhibitory constant (Ki) turned out to be 1.4 nM. In addition, the inhibition at 1 µM in data set [3] (setting [4]) was 106%. Also, the inhibition constant Ki in data set [3] (setting [5]) is 0.3 nM.
The corresponding values for `Cn1ncc2c1CCCC2CCN1Cc2ccccc2C1.O=C(O)C(=O)O` (stereo not shown) [Example 60, 4,5,6,7-tetrahydro-4-(2-(isoindolin-2-yl)ethyl)-1-methyl-1H-indazole oxalate] are 150 to 151 °C, 88.2%, 18.8 nM, 104% and 3.1 nM.
The matching figures for `C[C@@H]1CN(CCC2CCCc3c2cnn3-c2ccc(F)cc2)C[C@H](C)O1.O=C(O)C(=O)O` (stereo partly drawn) [Example 68, cis-1-(4-fluorophenyl)-4,5,6,7-tetrahydro-4-(2-(2,6-dimethylmorpholin-4-yl)ethyl)-1H-indazole oxalate]: 164 to 169 °C, 99.8%, 35.2 nM, 98% and 14.9 nM.
Consider `C(/CN1CCOCC1)=C1/CCCc2c1cnn2-c1ccccc1.O=C(O)C(=O)O` [Example 77, (E)-4,5,6,7-tetrahydro-4-(2-(morpholin-4-yl)ethylidene)-1-phenyl-1H-indazole oxalate], for which, in data set [1], the antiallodynic effect result is “clear antiallodynic effect”.
